Test results taken from article PMC10828645 (Heliyon, 2024).
Read-outs that look alike come from different tables or passages of the source.

Assays:
[1] = Ionized fraction at pH 7.4 calculated from pKa; settings: for Ionized fraction fcation: pH 7.4, Eq. (5), from literature basic pKa; for Ionized fraction fanion: pH 7.4, Eq. (6), from literature acidic pKa
[2] = cited from earlier work
[3] = ref [1]; cited from earlier work
[4] = marketed drugs; ref [1],[7]; cited from earlier work
[5] = type: in vivo, CD-1 mice; settings: CD-1, mouse, brain and plasma, intraperitoneal
[6] = Equilibrium dialysis, unbound fraction in plasma; type: in vitro ADME, CD-1 mice; settings: CD-1, mouse, pH 7.4
[7] = Equilibrium dialysis, unbound fraction in brain homogenate; type: in vitro ADME, CD-1 mice; settings: CD-1, mouse, brain homogenate (10 % w/v), pH 7.4
[8] = marketed drugs, external validation, ref [1],[7]

Compound | Ionized fraction fcation [1] | fu,b [4] | Kp,brain ([2]; mouse, in vivo) | Kp,uu,brain ([2]; mouse, in vivo) | Basic_pKa [3] | further results
COCCCC/C(=N\OCCN)c1ccc(C(F)(F)F)cc1 [Fluvoxamine] | 0.9901 |  |  |  |  | 
O=C1NC(=O)C(c2ccccc2)(c2ccccc2)N1 [Phenytoin] |  |  |  |  |  | Ionized fraction fanion [1]: 0.1118; Kp,brain [2, 8]: 0.63; Kp,uu,brain [2, 8]: 0.28; Acidic_pKa [3]: 8.30
O=C(CCCN1CCC(O)(c2ccc(Cl)cc2)CC1)c1ccc(F)cc1 [Haloperidol] | 0.8882 | 0.007 |  |  |  | Kp,brain [2, 8]: 13.0; Kp,uu,brain [2, 8]: 1.06
CCN1CCCC1CNC(=O)c1cc(S(N)(=O)=O)ccc1OC (stereo not shown) [Sulpiride] | 0.9693 |  | 0.08 | 0.06 | 8.9 | Ionized fraction fanion [1]: 0.0017; Acidic_pKa [3]: 10.2
COc1ccc(C(CN(C)C)C2(O)CCCCC2)cc1 (stereo not shown) [Venlafaxine] | 0.9876 | 0.210 |  |  | 9.3 | Kp,brain [2, 8]: 4.20; Kp,uu,brain [2, 8]: 0.98
CN(C)CCCC1(c2ccc(F)cc2)OCc2cc(C#N)ccc21 (stereo not shown) [Citalopram] | 0.9937 | 0.031 | 5.10 | 0.68 | 9.6 | 
C#CCN(C)[C@H](C)Cc1ccccc1 [Selegiline] | 0.5573 | 0.056 | 3.70 | 1.30 | 7.5 | 
CN1CCN(C2=Nc3cc(Cl)ccc3Nc3ccccc32)CC1 [Clozapine] | 0.3339 | 0.009 |  |  |  | Kp,brain [2, 8]: 4.10; Kp,uu,brain [2, 8]: 1.01
CN1CC[C@]23c4c5ccc(O)c4O[C@H]2[C@@H](O)C=C[C@H]3[C@H]1C5 [Morphine] | 0.8882 |  |  |  |  | Ionized fraction fanion [1]: 0.0038
COC(=O)C(c1ccccc1)C1CCCCN1 (stereo not shown) [Methylphenidate] | 0.9994 | 0.220 | 12.0 | 3.43 | 10.6 | 
CC(=O)CC(c1ccccc1)c1c(O)c2ccccc2oc1=O (stereo not shown) [Warfarin] |  |  |  |  |  | Kp uu at 2 h [5]: 0.19; fraction unbound at 5 h, 1 μM [6]: 0.097; fraction unbound at 5 h, 1 μM [7]: 0.281
Cc1ccc(-c2nc3ccc(C)cn3c2CC(=O)N(C)C)cc1 [Zolpidem] | 0.2403 | 0.200 | 0.29 | 0.24 | 6.9 | 
OCCOCCN1CCN(C(c2ccccc2)c2ccc(Cl)cc2)CC1 (stereo not shown) [Hydroxyzine] | 0.3339 | 0.010 | 7.70 | 1.51 | 7.1 | 
O=C1CC2(CCCC2)CC(=O)N1CCCCN1CCN(c2ncccn2)CC1 [Buspirone] | 0.5573 |  |  |  |  | 
Cc1ncc2n1-c1ccc(Cl)cc1C(c1ccccc1F)=NC2 [Midazolam] |  | 0.027 |  |  |  | Kp,uu,brain [2, 8]: 0.14
O=c1n(CCCN2CCN(c3cccc(Cl)c3)CC2)nc2ccccn12 [Trazodone] | 0.3869 | 0.047 |  | 0.56 | 7.2 | Kp,brain [2, 8]: 0.61
CC(C)NCC(O)COc1cccc2ccccc12 (stereo not shown) [Propranolol] |  |  |  |  |  | Kp uu at 2 h [5]: 3.08; fraction unbound at 5 h, 1 μM [7]: 0.022

Compound | Ionized fraction fcation [1] | fu,b [4] | Kp,brain ([2]; mouse, in vivo) | Kp,uu,brain ([2]; mouse, in vivo) | Basic_pKa [3] | further results
CN[C@H]1CC[C@@H](c2ccc(Cl)c(Cl)c2)c2ccccc21 [Sertraline] | 0.9921 |  |  |  | 9.5 | 
CCCC(C)C1(CC)C(=O)NC(=S)NC1=O (stereo not shown) [Thiopental] |  | 0.146 |  |  |  | Ionized fraction fanion [1]: 0.2847; Acidic_pKa [3]: 7.80
Nc1nnc(-c2cccc(Cl)c2Cl)c(N)n1 [Lamotrigine] |  | 0.220 | 1.10 | 0.64 |  | 
CNCCC=C1c2ccccc2CCc2ccccc21 [Nortriptyline] | 0.9980 | 0.005 | 11.0 | 1.63 | 10.1 | 
CCC(=O)O[C@](Cc1ccccc1)(c1ccccc1)[C@H](C)CN(C)C [Propoxyphene] | 0.9844 | 0.033 | 2.90 | 0.85 |  | 
CCCC(C)(COC(N)=O)COC(=O)NC(C)C (stereo not shown) [Carisoprodol] |  | 0.202 |  |  |  | Ionized fraction fanion [1]: 0.0003; Kp,brain [2, 8]: 0.66; Kp,uu,brain [2, 8]: 0.34; Acidic_pKa [3]: 11.0
NC(=O)N1c2ccccc2C=Cc2ccccc21 [Carbamazepine] |  |  | 0.76 | 0.27 |  | Ionized fraction fanion [1]: 0.0003; Acidic_pKa [3]: 10.9
CCCC(C)(COC(N)=O)COC(N)=O [Meprobamate] |  | 0.760 |  |  |  | Ionized fraction fanion [1]: 0.0001; Kp,uu,brain [2, 8]: 0.42; Acidic_pKa [3]: 11.3
CCN(CC)CCNC(=O)c1cc(Cl)c(N)cc1OC [Metoclopramide] | 0.9937 | 0.310 | 1.20 | 0.52 |  | Ionized fraction fanion [1]: 0.0001
CCOc1ccc(NC(C)=O)cc1 [Phenacetin] |  |  |  |  |  | Kp uu at 2 h [5]: 0.55; fraction unbound at 5 h, 1 μM [6]: 0.701; fraction unbound at 5 h, 1 μM [7]: 0.442
CN(C)CCCN1c2ccccc2Sc2ccc(Cl)cc21 [Chlorpromazine] | 0.9901 |  |  |  |  | Kp,brain [2, 8]: 23.0; Kp,uu,brain [2, 8]: 0.65
C=C[C@H]1C[N@@]2CC[C@H]1C[C@@H]2[C@@H](O)c1ccnc2ccc(OC)cc12 [Quinidine] |  |  |  |  |  | Kp uu at 2 h [5]: 0.05; fraction unbound at 5 h, 1 μM [6]: 0.286
CN(C)CCC=C1c2ccccc2C=Cc2ccccc21 [Cyclobenzaprine] | 0.9844 | 0.007 | 12.0 | 1.62 | 9.2 | 
Fc1ccc([C@@H]2CCNC[C@H]2COc2ccc3c(c2)OCO3)cc1 [Paroxetine] | 0.9987 | 0.004 | 3.30 | 0.86 |  | 
CNCCC(Oc1ccc(C(F)(F)F)cc1)c1ccccc1 (stereo not shown) [Fluoxetine] | 0.9980 |  |  |  |  | Kp,brain [2, 8]: 12.0; Kp,uu,brain [2, 8]: 0.89
COc1ccc2c3c1O[C@H]1C(=O)CC[C@H]4[C@@H](C2)N(C)CC[C@]314 [Hydrocodone] | 0.9264 | 0.550 | 2.10 | 1.96 | 8.5 | 
Cc1nc2n(c(=O)c1CCN1CCC(c3noc4cc(F)ccc34)CC1)CCCC2 [Risperidone] | 0.9091 |  |  |  | 8.4 | Kp,uu,brain [2, 8]: 0.26
